The text below walks through data of patent US10981932B2, “Macrocyclic indole derivatives” (Bayer Aktiengesellschaft, priority 2016, dated 2021).

For data set [1], the system named is SUDHL10. The data set can be described thus: Induction of caspase-3/7 activity (Caspase-Glo 3/7), SUDHL10. Format: cell-based. The note with it: caspase-3/7 induction, SUDHL10 cells, 3 h treatment, median. The essentials: (§1)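 Caspase-Glo 3/7 luminescence, 3 h compound exposure, 37 °C, humidified. Minus medium-only blank. EC50 fit: C0=1, plateau = reference max induction.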

In another data set the test system is A2780. The data set can be described thus: Anti-proliferative effect (CellTiter-Glo, 72 h), A2780. Format: cell-based. The note with it: A2780 cells, median, read-out: IC50 antiproliferation assay A2780 [M] (median). The essentials:
(§2)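 CTG luminescence read-out after 72 h compound exposure, 37 °C, humidified. Time-zero reference plate read at plating.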
A general note: ATP-based viability assays read luminescence as a measure of living cells.

The test system of data set [2] is SUDHL5. The data set can be described thus: Anti-proliferative effect (CellTiter-Glo, 72 h), SUDHL5. Format: cell-based. The note with it: Homo sapiens, SU-DHL-5, 72 h, SUDHL5 cells, antiproliferation, median, read-out: Antiproli SUDHL5 [M] (median). In outline: as §2
In data set [3] the test system is SUDHL5. The experiment in a line: Induction of caspase-3/7 activity (Caspase-Glo 3/7), SUDHL5. In kind it is cell-based. The note with it: Homo sapiens, SU-DHL-5, 3 h, caspase-3/7 induction, SUDHL5 cells, 3 h treatment; median. In outline: as §1
Data set [4] deals with SUDHL10. The experiment in a line: Anti-proliferative effect (CellTiter-Glo, 72 h), SUDHL10. Format: cell-based. The note with it: Homo sapiens, SU-DHL10, 72 h, SUDHL10 cells, antiproliferation, median, read-out: Antiproli SUDHL10 [M] (median). In outline:
as §2

Another data set has as its target MCL-1 (Homo sapiens, UniProt Q07820). The data set can be described thus: Protein-protein interaction assay MCL-1/Noxa BH3 peptide (MCL-1 assay), TR-FRET. In kind it is binding. The note with it: MBP-MCL-1 / Noxa BH3-derived peptide, median. The essentials: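 Displacement of the biotinylated Noxa BH3 peptide from MBP-tagged human MCL-1 (1 nM) is detected by time-resolved FRET. Compounds are tested in duplicate across eleven concentrations up to 20 μM, incubated 1 h at 22 °C and overnight at 4 °C, and IC50 is fitted with a four-parameter equation.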
A general note: TR-FRET usually uses a lanthanide donor and a delayed reading to cut background.

Data set [5] has as its system SUDHL10. The data set can be described thus: Induction of cytotoxicity (CellTiter-Glo, 5 h), SUDHL10.
Data set [6] relates to SUDHL5. The experiment in a line: Induction of cytotoxicity (CellTiter-Glo, 5 h), SUDHL5. Particulars: Homo sapiens, SU-DHL-5, 5 h.
Where [7] appears, read: Homo sapiens, SU-DHL10, 5 h, read-out: Cytotox SUDHL10 [M] (median), SUDHL10 cells, cytotoxicity induction, CellTiter-Glo, 5 h incubation, median.
Where [8] appears, read: read-out: Cytotox SUDHL5 [M] (median), SUDHL5 cells, cytotoxicity induction, CellTiter-Glo, 5 h incubation, median.
Setting [9] is: Homo sapiens, SU-DHL10, 5 h, read-out: Cytotox SUDHL10 [M] (median), SUDHL10 cells, cytotoxicity induction, CellTiter-Glo, 5 h, median.
[10] abbreviates: read-out: Cytotox SUDHL5 [M] (median), SUDHL5 cells, cytotoxicity induction, CellTiter-Glo, 5 h, median.

One may read the EC50 as the concentration that produces a half-maximal response. A low value points to an effect from little substance.

Counter-ions that a name gives are not always drawn. Like-named read-outs stand apart in the source and are kept apart here.

Chain of MCL-1 (Q07820 whole entry): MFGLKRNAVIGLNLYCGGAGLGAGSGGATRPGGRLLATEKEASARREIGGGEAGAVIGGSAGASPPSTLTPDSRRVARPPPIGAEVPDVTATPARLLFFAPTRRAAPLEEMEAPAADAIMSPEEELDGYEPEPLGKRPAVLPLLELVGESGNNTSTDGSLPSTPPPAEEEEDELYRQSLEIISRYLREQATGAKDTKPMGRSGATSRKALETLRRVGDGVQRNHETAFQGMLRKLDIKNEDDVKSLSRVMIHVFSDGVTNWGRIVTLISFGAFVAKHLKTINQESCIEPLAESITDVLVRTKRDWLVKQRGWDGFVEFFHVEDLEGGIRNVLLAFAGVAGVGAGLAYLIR

As for `Cc1nn(CCN(C)C)c2c1-c1cccc3c(CCCOc4cccc5ccccc45)c(C(=O)O)n(c13)CCCCOC2` (racemic) [Example 244, (rac)-1-[2-(dimethylamino)ethyl]-3-methyl-7-[3-(naphthalen-1-yloxy)propyl]-1,10,11,12,13,15-hexahydropyrazolo[4′,3′:9,10][1,6]oxazacycloundecino[8,7,6-hi]indole-8-carboxylic Acid Trifluoroacetic Acid Salt], the EC50 in the data set on SUDHL10 [1] (Homo sapiens, SU-DHL10, 3 h) was 6.42 µM; in the data set with SUDHL5 [3], 2.69 µM. Besides, the IC50 came to 1.84e-05 M in the data set on A2780 (Homo sapiens, A2780, 72 h); 5.23e-06 M with SUDHL5 [2] (72 h incubation); 5e-06 M in the data set on SUDHL10 [4] (72 h incubation); 0.00664 µM against MCL-1; 6.6e-06 M with SUDHL10 [5] (setting [7]); 3.2e-06 M with SUDHL5 [6] (setting [8]).

Consider `O=C(O)c1c(CCCOc2cccc3ccccc23)c2cccc3c2n1CCCCOCc1nn2c(c1-3)OCCC2` (racemic) [Example 247, (rac)-1-[3-(naphthalen-1-yloxy)propyl]-4,5,6,7,13,14-hexahydro-9H,12H-[1,3]oxazino[3″,2″: 1′,5′]pyrazolo[4′,3′:9,10][1,6]oxazacycloundecino[8,7,6-hi]indole-2-carboxylic Acid], for which the EC50 was found to be 17.3 µM in the data set on SUDHL10 [1] (Homo sapiens, SU-DHL10, 3 h) and 5.21 µM with SUDHL5 [3]. Besides, the IC50 in the data set with A2780 was greater than 3.3e-05 M; in the data set on A2780 (Homo sapiens, A2780, 72 h), 3.04e-05 M; in the data set with SUDHL5 [2] (72 h incubation) it was 5.26e-06 M; with SUDHL10 [4] (72 h incubation), 9.3e-06 M; at MCL-1, 0.00615 µM; with SUDHL10 [5] (setting [7]) it was 1.9e-05 M. Further, the IC50 with SUDHL5 [6] (setting [8]) worked out at 6.79e-06 M.

`O=C(O)c1c(CCCOc2cccc3ccccc23)c2cccc3c2n1CCCCOCc1nn2c(c1-3)COCC2` (racemic) [Example 250, (rac)-1-[3-(naphthalen-1-yloxy)propyl]-4,5,6,7,12,13-hexahydro-9H,15H-[1,4]oxazino[4″,3″:1′,5′]pyrazolo[4′,3′:9,10][1,6]oxazacycloundecino[8,7,6-hi]indole-2-carboxylic Acid]: the EC50 in the data set with SUDHL10 [1] (Homo sapiens, SU-DHL10, 3 h) was found to be 22 µM; in the data set on SUDHL5 [3], 10.9 µM. Moreover, the IC50 in the data set with A2780 is greater than 3.3e-05 M; in the data set on A2780 (Homo sapiens, A2780, 72 h), 2.29e-05 M; in the data set with SUDHL5 [2] (72 h incubation) it was 9.3e-06 M; in the data set on SUDHL10 [4] (72 h incubation), 9.7e-06 M; against MCL-1 it was 0.00788 µM; in the data set on SUDHL10 [5] (setting [7]) it was 2.18e-05 M. The IC50 with SUDHL5 [6] (setting [8]) turned out to be 1.33e-05 M.

Regarding `Cc1ccc2c(C(C)CCOc3cccc4ccccc34)c(C(=O)O)n3c2c1-c1c(C)nn(C)c1COCCCC3` (racemic) [Example 256, 1,3,4-trimethyl-7-[4-(naphthalen-1-yloxy)butan-2-yl]-1,10,11,12,13,15-hexahydropyrazolo[4′,3′:9,10][1,6]oxazacycloundecino[8,7,6-hi]indole-8-carboxylic Acid], the EC50 with SUDHL10 [1] (Homo sapiens, SU-DHL10, 3 h) was greater than 33 µM; with SUDHL5 [3], greater than 33 µM. Also, the IC50 is 2.03e-05 M in the data set with A2780 (Homo sapiens, A2780, 72 h); 1.5e-05 M in the data set on SUDHL5 [2] (72 h incubation); 9.2e-06 M in the data set with SUDHL10 [4] (72 h incubation); 0.0425 µM at MCL-1; greater than 3.3e-05 M in the data set with SUDHL10 [5] (setting [7]); 2.29e-05 M in the data set on SUDHL5 [6] (setting [8]).

`CCc1nn(C)c2c1-c1c(C)ccc3c(C(C)CCOc4cccc5cc(F)ccc45)c(C(=O)O)n(c13)CCCCOC2` (racemic) [Example 261, 3-ethyl-7-{4-[(6-fluoronaphthalen-1-yl)oxy]butan-2-yl}-1,4-dimethyl-1,10,11,12,13,15-hexahydropyrazolo[4′,3′:9,10][1,6]oxazacycloundecino[8,7,6-hi]indole-8-carboxylic Acid]: the EC50 with SUDHL10 [1] (Homo sapiens, SU-DHL10, 3 h) is 3.52 µM; in the data set with SUDHL5 [3], 1.77 µM. Moreover, the IC50 with A2780 (Homo sapiens, A2780, 72 h) amounted to 1.85e-05 M; with SUDHL5 [2] (72 h incubation), 1.17e-06 M; in the data set on SUDHL10 [4] (72 h incubation), 4.66e-06 M; against MCL-1, 0.00373 µM; in the data set on SUDHL10 [5] (setting [7]) it was 3.8e-06 M; in the data set with SUDHL5 [6] (setting [8]), 2.02e-06 M.

Regarding `CCc1nn(C)c2c1-c1c(C)ccc3c(CCCOc4cccc5cc(F)ccc45)c(C(=O)O)n(c13)CCCCOC2` (racemic) [Example 266, (rac)-3-ethyl-7-{3-[(6-fluoronaphthalen-1-yl)oxy]propyl}1,4-dimethyl-1,10,11,12,13,15-hexahydropyrazolo[4′3′:9,10][1,6]oxazacycloundecino[8,7,6-hi]indole-8-carboxylic Acid], the EC50 in the data set with SUDHL10 [1] (Homo sapiens, SU-DHL10, 3 h) was found to be 4.47 µM; with SUDHL5 [3], 1.79 µM. The IC50 was 2.83e-05 M in the data set on A2780 (Homo sapiens, A2780, 72 h); 9.96e-07 M with SUDHL5 [2] (72 h incubation); 2.83e-06 M in the data set on SUDHL10 [4] (72 h incubation); 0.00259 µM at MCL-1; 4.99e-06 M in the data set on SUDHL10 [5] (setting [7]); 1.76e-06 M in the data set on SUDHL5 [6] (setting [8]).

In the case of `CCc1nn(C)c2c1-c1c(C)ccc3c(CCCOc4cc(C)c(Cl)c(C)c4)c(C(=O)O)n(c13)CCCCOC2` (racemic) [Example 269, (rac)-1(3-(4-chloro-3,5-dimethylphenoxy)propyl)-12-ethyl-10,13-dimethyl-4,5,6,7,9,10-hexahydropyrazolo[4′,3′:9,10][1]oxa[6]azacycloundecino[8,7,6-hi]indole-2-carboxylic Acid], the EC50 in the data set on SUDHL10 [1] (Homo sapiens, SU-DHL10, 3 h) came to 13.2 µM; in the data set on SUDHL5 [3], 4.83 µM. The IC50 with A2780 (Homo sapiens, A2780, 72 h) worked out at 2.93e-05 M; with SUDHL5 [2] (72 h incubation), 2.26e-06 M; with SUDHL10 [4] (72 h incubation) it was 7.27e-06 M; against MCL-1 it was 0.00774 µM; with SUDHL10 [5] (setting [7]), 1.47e-05 M; in the data set with SUDHL5 [6] (setting [8]), 4.98e-06 M.

On to `CCc1nn(C)c2c1-c1c(C)ccc3c(CCCOc4cccc5c4CCCC5)c(C(=O)O)n(c13)CCCCOC2` (racemic) [Example 270, (rac)-12-ethyl-10,13-dimethyl-1-(3-((5,6,7,8-tetrahydronaphthalen-1-yl)oxy)propyl)-4,5,6,7,9,10-hexahydropyrazolo[4′,3′:9,10][1]oxa[6]azacycloundecino[8,7,6-hi]indole-2-carboxylic Acid], for which the EC50 with SUDHL10 [1] (Homo sapiens, SU-DHL10, 3 h) was found to be 19.3 µM; with SUDHL5 [3] it was 6.18 µM. Moreover, the IC50 was greater than 3.3e-05 M in the data set with A2780 (Homo sapiens, A2780, 72 h); 5.37e-06 M in the data set on SUDHL5 [2] (72 h incubation); 1.2e-05 M in the data set on SUDHL10 [4] (72 h incubation); 0.00578 µM on MCL-1; 2.19e-05 M in the data set with SUDHL10 [5] (setting [7]); 5.39e-06 M in the data set with SUDHL5 [6] (setting [8]).

As to `COc1ccc(OCc2nn(C)c3c2-c2cccc4c(CCCOc5cccc6ccccc56)c(C(=O)O)n(c24)CCCCOC3)cc1` (racemic) [Example 319, (rac)-3-[(4-methoxyphenoxy)methyl]-1-methyl-7-[3-(naphthalen-1-yloxy)propyl]-1,10,11,12,13,15-hexahydropyrazolo[4′,3′:9,10][1,6]oxazacycloundecino[8,7,6-hi]indole-8-carboxylic Acid], the EC50 in the data set with SUDHL10 [1] (Homo sapiens, SU-DHL10, 3 h) came to 30.7 µM; in the data set with SUDHL5 [3] it was 18.4 µM. Also, the IC50 in the data set with A2780 (Homo sapiens, A2780, 72 h) was determined as 1.26e-05 M; with SUDHL5 [2] (72 h) it was 1.21e-05 M; with SUDHL10 [4] (72 h) it was 5.93e-06 M; against MCL-1, 0.0371 µM; in the data set with SUDHL10 [5] (setting [9]), 2.83e-05 M; with SUDHL5 [6] (setting [10]), 2.11e-05 M.

On to `CN1CCCn2c(C(=O)O)c(CCCOc3cccc4ccccc34)c3cccc(c32)-c2c(nn(C)c2C(F)(F)F)C1` (racemic) [Example 324, (rac)-7,10-dimethyl-1-[3-(naphthalen-1-yloxy)propyl]-11-(trifluoromethyl)-4,5,6,7,8,10-hexahydropyrazolo[3′,4′:7,8][1,5]diazecino[9,10,1-hi]indole-2-carboxylic Acid], for which the concentration giving a half-maximal response (EC50) with SUDHL10 [1] (Homo sapiens, SU-DHL10, 3 h) is 32.1 µM; with SUDHL10 [1], greater than 33 µM; in the data set with SUDHL5 [3], greater than 33 µM. The IC50 in the data set with A2780 (Homo sapiens, A2780, 72 h) is 2.46e-05 M; in the data set with SUDHL5 [2] (72 h), 1.59e-05 M; with SUDHL10 [4] (72 h) it was 1.62e-05 M; at MCL-1, 0.027 µM; in the data set on SUDHL10 [5] (setting [9]), 2.68e-05 M; with SUDHL10 [5] (read-out: Cytotox SUDHL10 [M] (median), SUDHL10 cells, cytotoxicity induction, CellTiter-Glo, 5 h, median), greater than 3.3e-05 M. Further, the IC50 in the data set on SUDHL5 [6] (setting [10]) stood at 2.92e-05 M.
